Laboratory results as given in patent publication US4666890A, “Peptide, process for preparation thereof and use thereof” (priority 1978, dated 1987).

Columns and labels:
mice = assay: Acute toxicity in mice; type: in vivo; conditions: 1 g/kg (i.v.)
Excerpt: ACUTE TOXICITY IN MICE of FR-900156
1 g/kg (i.v.): no toxicity.

Mice (DDY male 5-6 W) = assay: Blood stream clearance of carbon; type: in vivo
Procedure: 1. Carbon suspension. Rotoring drawing ink (170 mg carbon/ml.) was diluted to 1/5 of the original concentration in saline containing 1% gelatin.
2. 0.1% aqueous sodium carbonate solution.
Mice (DDY male 5-6 W) were injected via the tail vein with a dose of 0.01 ml/g body weight of carbon. Blood samples were taken by means of a pointed capillary pippet calibrated to hold a 50 μl and previously washed in heparin. This was plunged into the retrooribital venous sinus at the nasal angle of the eye. The samples were removed at 3 and 6 min. The blood was immediately discharged into 3.0 ml. of the sodium carbonate solution. This hemolyszed the blood and allowed the quantitation of carbon. The samples were then read in a spectrophotometer at 660 nm, the log concentration being obtained from a previously determined standard curve. The clearance value K may be determined by plotting log carbon concentration against time according to the following relationship; [formula] in which T1 and T2 represent the time in min when the sample were withdrawn and C1 and C2 represent the concentrations of carbon in the blood at the time T1 and T2, respectively.
The aqueous solution of the test compound as given was administered subcutaneously to mice. Twenty four hours later, blood stream clearance of carbon was measured. K value obtained with treated mice was compared with that of control mice.

| SMILES | Acute toxicity in mice (mice) | Ktreated /Kcontrol (Mice (DDY male 5-6 W); dose 1 mg/mouse) | Ktreated /Kcontrol (Mice (DDY male 5-6 W); dose 10 mg/mouse) |
| --- | --- | --- | --- |
| C[C@H](NC(=O)[C@@H](C)O)C(=O)N[C@H](CCC(=O)N[C@@H](CCC[C@@H](N)C(=O)O)C(=O)NCC(=O)O)C(=O)O [FR-900156 substance] | no toxicity | – | – |
| c1ccc([C@H]2CN3CCSC3=N2)cc1 [Levamisol] | – | 0.5 | death |
